row,melting point [°C],SMILES
1,201 to 205,CNc1c(F)cc2c(=O)c(C(=O)O)cn(-c3nc(NCCO)c(F)cc3F)c2c1Cl
2,109 to 110,CN(C)CCN1c2ccccc2C(=O)N(C)c2cccnc21
3,90 to 92,COc1cc(/C=C/C(=O)Nc2ccccc2C(=O)O)ccc1OC1CCCCC1
4,86 to 89,COC(=O)[C@H](Cc1ccc(N)cc1)NC(=O)OC(C)(C)C
5,113 to 115,C=CCOc1cccn2c(=O)cc(C)nc12
6,239 to 240,O=CNc1ccc(C2=NNC(=O)C3CC23)cc1 (configuration not stated)
7,74 to 76,CCOC(=O)CCCCn1c(C)cn(N=Cc2cccnc2)c1=O
8,231 to 235,Cc1c(-c2ccccc2)oc2cc(OCC3CO3)ccc2c1=O (configuration not stated)
9,228 to 230,CC12CCC(=O)C=C1CCC1C3CC(OCC(=O)c4ccccc4)C(O)(C(=O)CO)C3(C)CC(O)C12F (configuration not stated)
10,113 to 114,CCOC(=O)C(=Cc1ccc(NC)cc1[N+](=O)[O-])C(=O)OCC
11,89 to 94,O=C(CNC(=O)c1cccc(-c2cccc3oc(Cc4cccc(C(F)(F)F)c4)cc23)c1)NCCO
12,176 to 177,CCNC(=O)NC(=S)N1N=C(c2ccc([N+](=O)[O-])cc2)c2cc3c(cc2CC1C)OCO3 (configuration not stated)
13,219 to 221,CS(=O)C1C(O)C(CO)OC1n1ccc(=O)[nH]c1=O (configuration not stated)
14,89 to 92,CC(=O)OC1CSC(Oc2cccnc2C(=O)N2CCCCC2)C(OC(C)=O)C1OC(C)=O (configuration not stated)
15,206 to 207,CC1CN(c2c(F)cc3c(=O)c(C(=O)O)cn4c3c2OCC4C)CC1NC(=O)OC(C)(C)C (configuration not stated)
16,208,CCCCc1nc2c(n1Cc1ccc(-c3ccccc3S(N)(=O)=O)cc1)C(=O)C(F)CS2 (configuration not stated)
17,130 to 132,CCOC(=O)c1cc(=O)c2cc(C(C)(C)C)cc(C(C)(C)C)c2o1
18,183 to 185,CC1(CCCN)NC(=O)NC1=O (configuration not stated)

row,melting point [°C],SMILES
1,182 to 184,O=C1Cc2cc(NC(=O)C(=O)N3CCC(Cc4cccc(F)c4)CC3)ccc2N1
2,230 to 232,Cc1[nH]cnc1/C=C1\CCCc2c(c3ccccc3n2C)C1=O
3,195 to 200,CCOC(=O)Cc1csc(NC(=O)C(CC2CCCC2)c2ccc(NC(=O)c3cccnc3)cc2)n1 (configuration not stated)
4,89 to 91,COP(=O)(O)Cc1ccc(O)cc1
5,200,COc1ccc(N2CCN(CCc3ccc4[nH]c(=O)oc4c3)CC2)c2ccccc12
6,187 to 189,CC(=O)NCC(=O)N(C)c1ccc(Cl)c(COc2cccn3c(Br)c(C)nc23)c1Cl
7,156 to 158,CC(C)CC(S)C(=O)NC(CC(C)C)C(=O)NC(Cc1ccc(-c2cccs2)nc1)C(=O)O (configuration not stated)
8,110 to 111,CCC(=O)NCCC1CCc2cc(Br)c3c(c21)C=CCO3 (configuration not stated)
9,94 to 95,CCN(CC)c1c([N+](=O)[O-])cc(C(F)(F)F)c(N2CCCC2=O)c1[N+](=O)[O-]
10,140,CCc1ccc(C=CC(=O)O)cc1
11,125,COc1ccc(CN(C)CCc2ccc(NC(=O)c3cccc4c(=O)c5cccc(F)c5[nH]c34)c(C)c2)cc1OC
12,245 to 246,O=C1NCc2c(O)nc3ccccc3c21
13,198,CSCCC(NCc1ccccc1N)C(=O)O (configuration not stated)
14,80 to 89,CC(C)NC(=O)N1C2=NC(C)(C)N(C(C)C)C(=O)N2c2ccccc21
15,125 to 128,COc1ccc2c(c1)CCC1CCNC(=O)C(CCN3CCCCC3)=C21 (configuration not stated)
16,106 to 108,COC(=O)CCC(C(=O)c1cccc(I)c1)c1ccccc1C (racemic)
17,117 to 119,CCOC(=O)C1=C(C)NC(c2sc(C)nc2C)=NC1c1ccc(F)cc1Cl (configuration not stated)

# Continued, compound first:
row,SMILES,melting point [°C]
1,Cc1ccc([N+](=O)[O-])cc1Nc1ccc(C(F)(F)F)cn1,103 to 105
2,COC(=O)C=Cc1cc2c(nc1C)C(=Cc1ccccc1)CCC2,121 to 123
3,CCOC(=O)c1csc(S)n1,120 to 121
4,On1nnc2cccnc21,216 to 217
5,COc1ccc(N2CCN(CCC(O)COc3ccccc3)CC2)cc1 (configuration not stated),95 to 97
6,CN1CCN(c2n[nH]c(-c3ccc(I)cc3)c2-c2ccncc2)CC1,265 to 266
7,COc1cc(OC)c(C(=O)C=Cc2ccc3c(c2)OCO3)c(OP(=O)(O)O)c1,79 to 80
8,CN(C)CCc1nc2cccnc2[nH]1,109 to 112
9,COCNc1c(C#N)cnn1-c1ccc(Cl)c(Cl)c1Cl,129 to 130
10,NNc1nc2cc(Cl)c(Cl)cc2nc1Cl,< 260
11,COc1cc(OC)c(OC)cc1CN1CCc2cc(OCc3ccccc3)c(OC)cc2C1,110 to 111
12,CCCCCCCCCCCCc1cc(CBr)on1,31.5 to 35
13,O=C(Nc1cccc(S(=O)(=O)c2ccccn2)c1)C(O)(C(F)(F)F)C(F)(F)F,264 to 267
14,CC(C=CC(C)C(C)(C)O)C1CCC2C(=O)CCCC21C (configuration not stated),101 to 102
15,N=C(NCCCCC1CCN(CC(O)CO)CC1)NC(=O)c1nc(Cl)c(N)nc1N (configuration not stated),188 to 191
16,Fc1ccccc1N1CCN(CCCCNc2ccc(-c3ccccc3)cn2)CC1,95
17,COCc1ccc(-c2ncccc2C#N)cc1,74
18,O=C(Nc1ccc(Cl)cc1)NS(=O)(=O)c1ccc2c(c1)OCCO2,191
19,CCCCCCCCn1c2cc(OC)ccc2c2ccc(OC)cc21,63 to 64

row,SMILES,melting point [°C]
1,O=c1oc(-c2ccccc2)cc(O)c1Sc1cccc2ccccc12,242 to 243
2,CCc1nnc(-c2ccc(O)cc2)n1-c1ccccc1,275
3,CC(Cc1nc(-c2ccccc2)nc2ccccc12)C(=O)N(C)C(C)C (configuration not stated),171
4,CC(CCC(O)C(C)(C)O)C1CCC2C3C(O)CC4CC(O)CCC4(C)C3CC(O)C12C (configuration not stated),199 to 200
5,O=C(Nc1ccc(SC(F)(F)F)c(Cl)c1)c1cc(Cl)c2ccccc2c1O,148 to 149
6,CC(c1oc2ccccc2c(=O)c1-c1ccccc1)n1nc(-c2ccc3cn[nH]c3c2)c2c(N)ncnc21 (configuration not stated),176 to 178
7,CCCCc1oc2ccc(NS(C)(=O)=O)cc2c1C(O)c1ccc(OCCCN(CCCC)CCCC)cc1 (configuration not stated),94
8,NCCOc1cccc(CC(Nc2cc(-c3ccc(OCc4ccccc4)cc3)ncn2)C(=O)O)c1 (configuration not stated),154
9,S=C(Nc1ccc(Cl)cc1)NC1CCCCC1,179 to 180
10,O=C(O)CCCCC(=NOCc1ccc(OCc2nc(-c3ccccc3)no2)cc1)c1ccccc1,91 to 92
11,CC(C)N1CC(CO)CC2c3cccc4[nH]cc(c34)CC21 (configuration not stated),192 to 194
12,CCN1CCC(c2ccccc2)=C(C(=O)NC)C1,103 to 105
13,"C=CCN1CCc2cc(OC)c(OC)c3c2C1Cc1cc(OC)c(OC)cc1-3 (single isomer, unassigned; (+))",139 to 143
14,COc1cc(Nc2nccc(-c3ccc(Cl)nc3)n2)cc(OC)c1OC,191 to 192
15,COc1ccc(C(=O)c2c(-c3ccc(OCCN4CCCC4)cc3)sc3cc(OCc4ccccc4)ccc23)cc1OC,74 to 77
16,Cc1cc(C(C)(C)C)c(O)c(C)c1CC(=O)O,161 to 165
17,CNS(=O)(=O)c1ccc2ccccc2c1,137
18,C=CCOc1cc(N)c([N+](=O)[O-])cc1I,74

# — a melting point compilation (Tetko et al.; mined from patent text by program, amines drawn as free bases though some values may be those of a salt)
